One test concerns the target T1, KRAS G12V (Homo sapiens, UniProt P01116, G12V).
T1 construct: SW620-KRAS (G12V)-HiBit-KI cell (Pharmaron); host or cells: SW620-KRAS (G12V)-HiBit-KI cells (HiBiT knock-in at the endogenous KRAS locus)
Kind of test: KRAS G12V HiBit assay. Format: cell-based. To be noted: SW620-KRAS (G12V)-HiBit-KI cells, compound treatment for 24 hours, class symbols. The method, boiled down:
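HiBiT-tagged KRAS G12V cells treated 24 h with compound in a 3-fold, 10-point series (0.3 mM DMSO stock); lytic HiBiT reagent with LgBiT added after 15 min room-temperature equilibration. Degradation calculated against 0.1% DMSO high control.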

Another test deals with T2, KRAS G12D (Homo sapiens, UniProt P01116, G12D).
T2 construct: AsPc-1-KRAS (G12D)-HiBit-KI cell (Pharmaron); host or cells: AsPc-1-KRAS (G12D)-HiBit-KI cells (HiBiT knock-in at the endogenous KRAS locus)
T2 sequence (P01116 1-188 isoform P01116-2 G12D): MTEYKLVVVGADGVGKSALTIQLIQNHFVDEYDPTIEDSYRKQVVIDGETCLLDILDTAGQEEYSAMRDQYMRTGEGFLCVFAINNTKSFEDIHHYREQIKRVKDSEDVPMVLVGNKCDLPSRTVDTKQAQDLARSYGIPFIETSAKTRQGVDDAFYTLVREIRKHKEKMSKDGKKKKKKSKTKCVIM
Kind of test: KRAS G12D HiBit assay. As to conditions: AsPc-1-KRAS (G12D)-HiBit-KI cell, compound treatment for 24 hours, absolute DC50. Format: cell-based. The method, boiled down: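 Cells were treated for 24 h with compounds in a 3-fold, 10-point dilution series from a 0.3 mM DMSO stock, then equilibrated 15 min at room temperature. KRAS G12D HiBiT levels were read by luminescence after lytic Nano-Glo HiBiT reagent with LgBiT; inhibition calculated relative to 0.1% DMSO high control.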
On the technique in general: HiBiT is a short tag that completes a luciferase, so light tracks the accessible tagged protein.

[1] abbreviates: numeric bounds given in place of class symbols.

Bounds are passed on as bounds.

T1 sequence (P01116 1-188 isoform P01116-2 G12V): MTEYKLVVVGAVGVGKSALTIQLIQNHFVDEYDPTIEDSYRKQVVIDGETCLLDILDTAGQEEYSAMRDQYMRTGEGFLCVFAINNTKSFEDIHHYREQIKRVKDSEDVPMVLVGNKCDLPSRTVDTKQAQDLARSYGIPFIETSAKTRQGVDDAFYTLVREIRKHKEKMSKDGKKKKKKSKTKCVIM

With `CCc1c(F)ccc2cc(O)cc(-c3ccc4c(N5CCC[C@@](C)(O)C5)nc(OC[C@@]56CCCN5[C@@H](COC(=O)N5CCC(CN7CCC(c8ccc9c(c8)n(C)c(=O)n9C8CCC(=O)NC8=O)CC7)CC5)CC6)nc4c3F)c12` (stereo partly drawn) [Compound 319, ((3R,7aS)-7a-(((7-(8-ethyl-7-fluoro-3-hydroxynaphthalen-1-yl)-8-fluoro-4-((R)-3-hydroxy-3-methylpiperidin-1-yl)quinazolin-2-yl)oxy)methyl)hexahydro-1H-pyrrolizin-3-yl)methyl 4-((4-(1-(2,6-dioxopiperidin-3-yl)-3-methyl-2-oxo-2,3-dihydro-1H-benzo[d]imidazol-5-yl)piperidin-1-yl)methyl)piperidine-1-carboxylate], the DC50 on KRAS G12V and on KRAS G12D (setting [1]) was above 100 nM each time.

Turning to `C#Cc1c(F)ccc2cc(O)cc(-c3ncc4c(N5CCC[C@@](C)(O)C5)nc(OCC5(CN6CCN(Cc7ccc8c(c7)n(C)c(=O)n8C7CCC(=O)NC7=O)CC6)CC5)nc4c3F)c12` (stereo partly shown) [Compound 42], the values for the DC50 at KRAS G12V and on KRAS G12D (class symbols) were above 100 nM and above 300 nM, respectively.

With `C#Cc1c(F)ccc2cc(O)cc(-c3ccc4c(N5CCC[C@@](C)(O)C5)nc(OCC5(CN6CCC(CN7CCN(c8ccc9c(c8)n(C)c(=O)n9C8CCC(=O)NC8=O)CC7)CC6)CC5)nc4c3F)c12` (stereo partly shown) [Compound 12], the DC50 is above 100 nM at KRAS G12V and below 100 nM on KRAS G12D (class symbols).

Turning to `CCc1c(F)ccc2cc(O)cc(-c3ncc4c(N5CCC[C@@](C)(O)C5)nc(OC[C@@]56CCCN5[C@H](COC(=O)N5CC7C(CN8CCC(c9ccc%10c(c9)n(C)c(=O)n%10C9CCC(=O)NC9=O)CC8)C7C5)CC6)nc4c3F)c12` (stereo partly drawn) [Compound 401, ((3S,7aS)-7a-(((7-(8-ethyl-7-fluoro-3-hydroxynaphthalen-1-yl)-8-fluoro-4-((R)-3-hydroxy-3-methylpiperidin-1-yl)pyrido[4,3-d]pyrimidin-2-yl)oxy)methyl)hexahydro-1H-pyrrolizin-3-yl)methyl 6-((4-(1-(2,6-dioxopiperidin-3-yl)-3-methyl-2-oxo-2,3-dihydro-1H-benzo[d]imidazol-5-yl)piperidin-1-yl)methyl)-3-azabicyclo[3.1.0]hexane-3-carboxylate], the DC50 on KRAS G12V is 10 to 100 nM; at KRAS G12D (class symbols), below 100 nM.

As to `C#Cc1c(F)ccc2cc(O)cc(-c3ncc4c(N5CCC[C@@](C)(O)C5)nc(OC[C@@]56CCCN5[C@H](COC(=O)N5CCN(CC#CCOc7cccc8c7n(C)c(=O)n8C7CCC(=O)NC7=O)CC5)CC6)nc4c3F)c12` (stereo partly drawn) [Compound 376, ((3S,7aS)-7a-(((7-(8-ethynyl-7-fluoro-3-hydroxynaphthalen-1-yl)-8-fluoro-4-((R)-3-hydroxy-3-methylpiperidin-1-yl)pyrido[4,3-d]pyrimidin-2-yl)oxy)methyl)hexahydro-1H-pyrrolizin-3-yl)methyl 4-(4-((1-(2,6-dioxopiperidin-3-yl)-3-methyl-2-oxo-2,3-dihydro-1H-benzo[d]imidazol-4-yl)oxy)but-2-yn-1-yl)piperazine-1-carboxylate], the DC50 on KRAS G12V and on KRAS G12D (setting [1]) was above 100 nM each time.

Take `C#Cc1c(F)ccc2cc(O)cc(-c3ncc4c(N5CCC[C@@](C)(O)C5)nc(OCC5(CN6CC7(C6)CN(c6ccc8c(c6)n(C)c(=O)n8C6CCC(=O)NC6=O)C7)CC5)nc4c3F)c12` (stereo partly shown) [Compound 51]: the figures for the DC50 at KRAS G12V and on KRAS G12D (class symbols) were above 100 nM and below 100 nM, respectively.

As for `CCc1c(F)ccc2cc(O)cc(-c3ncc4c(N5CCC[C@@](C)(O)C5)nc(OC[C@@]56CCCN5[C@H](COC(=O)N5CCC(N7CC8(CC(c9ccc%10c(c9)n(C)c(=O)n%10C9CCC(=O)NC9=O)C8)C7)CC5)CC6)nc4c3F)c12` (stereo partly drawn) [Compound 365, ((3S,7aS)-7a-(((7-(8-ethyl-7-fluoro-3-hydroxynaphthalen-1-yl)-8-fluoro-4-((R)-3-hydroxy-3-methylpiperidin-1-yl)pyrido[4,3-d]pyrimidin-2-yl)oxy)methyl)hexahydro-1H-pyrrolizin-3-yl)methyl 4-(6-(1-(2,6-dioxopiperidin-3-yl)-3-methyl-2-oxo-2,3-dihydro-1H-benzo[d]imidazol-5-yl)-2-azaspiro[3.3]heptan-2-yl)piperidine-1-carboxylate], the DC50 on KRAS G12V is below 10 nM; on KRAS G12D (class symbols) it was below 100 nM.

`CCc1c(F)ccc2cc(O)cc(-c3ncc4c(N5CCC[C@@](C)(O)C5)nc(OC[C@@]56CCCN5[C@H](COC(=O)N5CCC(C)(CN7CCN(c8ccc9c(c8)n(C)c(=O)n9C8CCC(=O)NC8=O)CC7)CC5)CC6)nc4c3F)c12` (stereo partly drawn) [Compound 502, ((3S,7aS)-7a-(((7-(8-ethyl-7-fluoro-3-hydroxynaphthalen-1-yl)-8-fluoro-4-((R)-3-hydroxy-3-methylpiperidin-1-yl)pyrido[4,3-d]pyrimidin-2-yl)oxy)methyl)hexahydro-1H-pyrrolizin-3-yl)methyl 4-((4-(1-(2,6-dioxopiperidin-3-yl)-3-methyl-2-oxo-2,3-dihydro-1H-benzo[d]imidazol-5-yl)piperazin-1-yl)methyl)-4-methylpiperidine-1-carboxylate]: the DC50 is below 10 nM on KRAS G12V and below 100 nM on KRAS G12D (class symbols).

Take `C#Cc1c(F)ccc2cccc(-c3ncc4c(N5CCCC(C#N)CC5)nc(OC[C@@]56CCCN5[C@H](COC(=O)NCCOCCOc5ccc7c(c5)n(C)c(=O)n7C5CCC(=O)NC5=O)CC6)nc4c3F)c12` (stereo partly drawn) [Compound 117, ((3S,7aS)-7a-(((4-(4-Cyanoazepan-1-yl)-7-(8-ethynyl-7-fluoronaphthalen-1-yl)-8-fluoropyrido[4,3-d]pyrimidin-2-yl)oxy)methyl)hexahydro-1H-pyrrolizin-3-yl)methyl (2-(2-((1-(2,6-dioxopiperidin-3-yl)-3-methyl-2-oxo-2,3-dihydro-1H-benzo[d]imidazol-5-yl)oxy)ethoxy)ethyl) carbamate]: the DC50 is above 100 nM at KRAS G12V and above 300 nM on KRAS G12D (class symbols).

Take `CCc1c(F)ccc2cc(O)cc(-c3ncc4c(N5CCC[C@@](C)(O)C5)nc(OC[C@@]56CCCN5[C@H](COC(=O)N5CCC(N7CC8(CCC(c9ccc%10c(c9)n(C)c(=O)n%10C9CCC(=O)NC9=O)CC8)C7)CC5)CC6)nc4c3F)c12` (stereo partly drawn) [Compound 363, ((3S,7aS)-7a-(((7-(8-ethyl-7-fluoro-3-hydroxynaphthalen-1-yl)-8-fluoro-4-((R)-3-hydroxy-3-methylpiperidin-1-yl)pyrido[4,3-d]pyrimidin-2-yl)oxy)methyl)hexahydro-1H-pyrrolizin-3-yl)methyl 4-(7-(1-(2,6-dioxopiperidin-3-yl)-3-methyl-2-oxo-2,3-dihydro-1H-benzo[d]imidazol-5-yl)-2-azaspiro[3.5]nonan-2-yl)piperidine-1-carboxylate]: the values for the DC50 at KRAS G12V and at KRAS G12D (class symbols) were below 10 nM and below 100 nM, respectively.

In the case of `C#Cc1c(F)ccc2cccc(-c3ncc4c(N5CCC[C@@](C)(O)C5)nc(OC[C@]56CCCN5[C@@H](COC(=O)N5CCC(CN7CCC(c8ccc9c(c8)n(C)c(=O)n9C8CCC(=O)NC8=O)CC7)CC5)CC6)nc4c3F)c12` (stereo partly shown) [Compound 131], the DC50 at KRAS G12V was above 100 nM; on KRAS G12D (class symbols), above 300 nM.

For the molecule `CCc1c(F)ccc2cc(O)cc(-c3ncc4c(N5CCC[C@@](C)(O)C5)nc(OC[C@@]56CCCN5C(COCCCN5CCC(c7ccc8c(c7)n(C)c(=O)n8C7CCC(=O)NC7=O)CC5)CC6)nc4c3F)c12` (stereo partly drawn) [Compound 490, 3-(5-(1-(3-(((7aS)-7a-(((7-(8-ethyl-7-fluoro-3-hydroxynaphthalen-1-yl)-8-fluoro-4-((R)-3-hydroxy-3-methylpiperidin-1-yl)pyrido[4,3-d]pyrimidin-2-yl)oxy)methyl)hexahydro-1H-pyrrolizin-3-yl)methoxy)propyl)piperidin-4-yl)-3-methyl-2-oxo-2,3-dihydro-1H-benzo[d]imidazol-1-yl)piperidine-2,6-dione], the DC50 on KRAS G12V and at KRAS G12D (setting [1]) was above 100 nM each time.

As to `CCc1c(F)ccc2cc(O)cc(-c3ncc4c(N5CCC[C@@](C)(O)C5)nc(OC[C@]56CCCN5[C@H](COC(=O)N5CCC(Oc7cccc8c7n(C)c(=O)n8C7CCC(=O)NC7=O)CC5)CC6)nc4c3F)c12` (stereo partly drawn) [Compound 306, ((3S,7aR)-7a-(((7-(8-ethyl-7-fluoro-3-hydroxynaphthalen-1-yl)-8-fluoro-4-((R)-3-hydroxy-3-methylpiperidin-1-yl)pyrido[4,3-d]pyrimidin-2-yl)oxy)methyl)hexahydro-1H-pyrrolizin-3-yl)methyl 4-((1-(2,6-dioxopiperidin-3-yl)-3-methyl-2-oxo-2,3-dihydro-1H-benzo[d]imidazol-4-yl)oxy)piperidine-1-carboxylate], the figures for the DC50 at KRAS G12V and on KRAS G12D (setting [1]) were 10 to 100 nM and above 100 nM, respectively.

In the case of `CCc1c(F)ccc2cc(O)cc(-c3ccc4c(N5CCC[C@@](C)(O)C5)nc(OC[C@]56CCCN5[C@H](COC(=O)N5CCC(CN7CCC(c8ccc9c(c8)n(C)c(=O)n9C8CCC(=O)NC8=O)CC7)CC5)CC6)nc4c3F)c12` (stereo partly drawn) [Compound 318, ((3S,7aR)-7a-(((7-(8-ethyl-7-fluoro-3-hydroxynaphthalen-1-yl)-8-fluoro-4-((R)-3-hydroxy-3-methylpiperidin-1-yl)quinazolin-2-yl)oxy)methyl)hexahydro-1H-pyrrolizin-3-yl)methyl 4-((4-(1-(2,6-dioxopiperidin-3-yl)-3-methyl-2-oxo-2,3-dihydro-1H-benzo[d]imidazol-5-yl)piperidin-1-yl)methyl)piperidine-1-carboxylate], the DC50 on KRAS G12V and at KRAS G12D (setting [1]) was above 100 nM in each case.

These data come from US12599672B2, “KRAS proteolysis targeting chimeras” (PAQ Therapeutics Inc., priority 2023, dated 2026).
